Values after ≈ are worked out from the molar mass of the structure shown. Read-outs that look alike come from different tables or passages of the source.
What was measured:
Trichophyton pedis 804 = assay: Minimal inhibitory concentration (agar); format: cell-based; conditions: Trichophyton pedis, 804, 96 h, pH 6.4
[1] = test system: Mycobacterium smegmatis ATCC 607; assay: Minimal inhibitory concentration (agar); format: cell-based; conditions: Mycolicibacterium smegmatis, ATCC607, 48 h; nutrient agar, pH 7.0, 2 days, 37° C.
[2] = test system: Staphylococcus aureus FDA 209P; assay: Minimal inhibitory concentration (agar); format: cell-based; conditions: FDA209P, 48 h, nutrient agar, pH 7.0, 2 days, 37° C.
[3] = test system: Mycoplasma gallisepticum KP-13; assay: Antimycoplasma activity, inhibition zone; format: cell-based; conditions: Eiken PPLO agar, pH 7.8, 8 days, 37° C.
Procedure: E Eiken PPLO agar (pH 7.8, 8 days, 37° C.)
(§1) Nanaomycin A and derivatives thereof according to the present invention are assayed in a similar manner to that designated as the paper disc method by Itoh, et al [J. of Antibiotics, 24, 855-859 (1971)], for example, as follows: […]

[4] = test system: parasite of the genus Tricophyton; assay: Therapeutic effect on infectious diseases in guinea pigs and cattle; format: in vivo
Procedure: When dermatomycosis of cattle caused by mass infection of Trichophyton verrucosum is treated with nanaomycin A, nanaomycin A is dissolved or suspended in a suitable carrier, for example, olive oil, and is coated on the affected part directly with or without removal of the scales. […] The results obtained by once-coating of nanaomycin A and by twice-coating (the second coating is carried out a week after the first coating) are shown in Tables 2 and 3, respectively.

[5] = test system: Acholeplasma laidlawii (A); assay: Antimycoplasma activity, inhibition zone; format: cell-based; conditions: Hokken PPLO agar, pH 7.8, 8 days, 37° C.
Procedure: H Hokken PPLO agar (pH 7.8, 8 days, 37° C.)
as §1

Saccharomyces sake = assay: Minimal inhibitory concentration (agar); format: cell-based; conditions: potato agar, pH 6.4, 4 days, 27° C.
Trichophyton purpureum = assay: Minimal inhibitory concentration (agar); format: cell-based; conditions: 96 h, pH 6.4
Trichophyton ferrugineum = assay: Minimal inhibitory concentration (agar); format: cell-based; conditions: potato agar, pH 6.4, 4 days, 27° C.
Trichophyton violaceum = assay: Minimal inhibitory concentration (agar); format: cell-based; conditions: potato agar, pH 6.4, 4 days, 27° C.
[6] = test system: mycoplasma, Gram-positive bacteria and tricophyton; assay: Antimicrobial activity (in words); format: cell-based
Piricularia oryzae = assay: microbe, parasite or virus in culture; format: cell-based; conditions: 96 h, pH 6.4, potato agar, pH 6.4, 4 days, 27° C.
Salmonella typhimurium = assay: Minimal inhibitory concentration (agar); format: cell-based; conditions: Salmonella enterica, 48 h, nutrient agar, pH 7.0, 2 days, 37° C.
[7] = test system: Aspergillus fumigatus IAM 2162; assay: Minimal inhibitory concentration (agar); format: cell-based; conditions: IAM2162, 96 h, potato agar, pH 6.4, 4 days, 27° C.
Procedure: | P potato agar (pH 6.4, 4 days, 27° C.)

Trichophyton asteroides = assay: Minimal inhibitory concentration (agar); format: cell-based; conditions: potato agar, pH 6.4, 4 days, 27° C.
Microsporum gypseum 704 = assay: Minimal inhibitory concentration (agar); format: cell-based; conditions: Nannizzia gypsea, 704, 96 h; potato agar, pH 6.4, 4 days, 27° C.
[8] = test system: Aerobacter aerogenes IAM 1183; assay: Minimal inhibitory concentration (agar); format: cell-based; conditions: Klebsiella aerogenes, IAM1183, 48 h; nutrient agar, pH 7.0, 2 days, 37° C.
Procedure: (§2) N nutrient agar (pH 7.0, 2 days, 37° C.)

Bacillus cereus T = assay: Minimal inhibitory concentration (agar); format: cell-based; conditions: 48 h, nutrient agar, pH 7.0, 2 days, 37° C.
Procedure: as §2

Shigella sonnei E 33 = assay: Minimal inhibitory concentration (agar); format: cell-based; conditions: E33, 48 h, nutrient agar, pH 7.0, 2 days, 37° C.
Procedure: as §2

Proteus mirabilis = assay: Minimal inhibitory concentration (agar); format: cell-based; conditions: 48 h, nutrient agar, pH 7.0, 2 days, 37° C.
Procedure: as §2

[9] = test system: Staphylococcus aureus FS 1227 (PC-R); assay: Minimal inhibitory concentration (agar); format: cell-based; conditions: 48 h, nutrient agar, pH 7.0, 2 days, 37° C., penicillin resistant strain
Procedure: as §2

[10] = test system: Corynebacterium paurometabolum; assay: Minimal inhibitory concentration (agar); format: cell-based; conditions: Tsukamurella paurometabola, 48 h; nutrient agar, pH 7.0, 2 days, 37° C.
Procedure: as §2

[11] = test system: Staphylococcus aureus KB 61 (R-TC, EM); assay: Minimal inhibitory concentration (agar); format: cell-based; conditions: 48 h, pH 7
Procedure: as §2

[12] = test system: Pseudomonas aeruginosa P-3; assay: Minimal inhibitory concentration (agar); format: cell-based; conditions: P3, 48 h, nutrient agar, pH 7.0, 2 days, 37° C.
Procedure: as §2

[13] = test system: Proteus vulgaris IFO 3167; assay: Minimal inhibitory concentration (agar); format: cell-based; conditions: IFO3167, 48 h, nutrient agar, pH 7.0, 2 days, 37° C.
Procedure: as §2

[14] = test system: Staphylococcus aureus KB 64 (R-TC, EM); assay: Minimal inhibitory concentration (agar); format: cell-based; conditions: 48 h, pH 7
Procedure: as §2

Solubility = format: physicochemical
Trichophyton rubrum = assay: Minimal inhibitory concentration (agar); format: cell-based; conditions: pH 6.4, 4 days, 27° C.
Procedure: (§3) P potato agar (pH 6.4, 4 days, 27° C.)
(§4) MIC Minimal inhibitory concentration
(§5) Minimal inhibitory concentration was assayed by agar dilution method
(§6) (potato agar, pH 6.4, 27° C., 4 days).

Trichophyton schoenleini = assay: Minimal inhibitory concentration (agar); format: cell-based; conditions: pH 6.4, 4 days, 27° C.
Procedure: as §3, §4, §5, §6

Candida albicans = assay: Minimal inhibitory concentration (agar); format: cell-based; conditions: pH 6.4, 4 days, 27° C.
Procedure: as §3, §4, §5, §6

[15] = test system: Aspergillus niger ATCC 6275; assay: Minimal inhibitory concentration (agar); format: cell-based; conditions: ATCC6275, 96 h, potato agar, pH 6.4, 4 days, 27° C., read-out: MIC
[16] = test system: Staphylococcus aureus FDA 209P (JC-1); assay: Minimal inhibitory concentration (agar); format: cell-based; conditions: FDA209P, 48 h, nutrient agar, pH 7.0, 2 days, 37° C.
Procedure: (§7) Medium N nutrient agar (pH 7.0, 2 days, 37° C.)
as §4, §2

[17] = test system: Bacillus subtilis PCI 219; assay: Minimal inhibitory concentration (agar); format: cell-based; conditions: Bacillus subtilis, PCI219, 48 h, pH 7, nutrient agar, pH 7.0, 2 days, 37° C.; read-out: MIC
Procedure: as §7, §4, §2

[18] = test system: Escherichia coli NIHJ (JC-2); assay: Minimal inhibitory concentration (agar); format: cell-based; conditions: 48 h, pH 7, nutrient agar, pH 7.0, 2 days, 37° C.
Procedure: as §7, §4, §2

Sarcina lutea PCI 1001 = assay: Minimal inhibitory concentration (agar); format: cell-based; conditions: Micrococcus luteus, PCI1001, 48 h, pH 7, nutrient agar, pH 7.0, 2 days, 37° C.; read-out: MIC
Procedure: as §7, §4, §2

[19] = test system: Trichophyton interdigitale; assay: Minimal inhibitory concentration (agar); format: cell-based; conditions: potato agar, pH 6.4, 4 days, 27° C.
[20] = test system: Trichophyton mentagrophytes; assay: Minimal inhibitory concentration (agar); format: cell-based; conditions: 96 h, pH 6.4, potato agar, pH 6.4, 4 days, 27° C.
Trichophyton roseum = assay: Minimal inhibitory concentration (agar); format: cell-based; conditions: Trichophyton, 96 h, pH 6.4, potato agar, pH 6.4, 4 days, 27° C.; read-out: MIC
Aspergillus fumigatus = assay: Minimal inhibitory concentration (agar dilution method); format: cell-based; conditions: potato agar, pH 6.4, 27° C., 4 days
Procedure: as §5, §6

Microsporum gypseum = assay: as above; format: cell-based; conditions: potato agar, pH 6.4, 27° C., 4 days
Procedure: as §5, §6

Aspergillus niger = assay: Minimal inhibitory concentration (agar); format: cell-based; conditions: potato agar, pH 6.4, 4 days, 27° C.
Procedure: as §5, §6, §3

For `COC(=O)CC1CC2=C(C(=O)c3c(O)cccc3C2=O)C(C)O1` (stereo not shown) [Nanaomycin A methyl ester, nanaomycin A methyl ester], the MIC (Trichophyton pedis 804) was 12.5 µg/mL (≈ 39.5 µM), the MIC [1] was 12.5 µg/mL (≈ 39.5 µM) and the MIC [2] was 12.5 µg/mL (≈ 39.5 µM). For the same molecule, the “Inhibition Zone” value [3] was 28.5 mm, the “therapeutic effect on Trichophyton infectious diseases” value [4] was “inferior to those of nanaomycin A and acetylnanaomycin A” and the “Inhibition Zone” value [5] was “none”. The MIC (Saccharomyces sake; Saccharomyces, 96 h, read-out: MIC) was 50 µg/mL (≈ 158 µM), the MIC (Trichophyton purpureum) was 12.5 µg/mL (≈ 39.5 µM) and the MIC (Trichophyton ferrugineum; Microsporum ferrugineum, 96 h, read-out: MIC) was 12.5 µg/mL (≈ 39.5 µM). For the same molecule, the MIC (Trichophyton violaceum; Trichophyton violaceum, 96 h, read-out: MIC) was 12.5 µg/mL (≈ 39.5 µM), the antimicrobial activity [6] was “generally lower than those of other derivatives of nanaomycin A” and the MIC (Piricularia oryzae) was 12.5 µg/mL (≈ 39.5 µM). The MIC (Salmonella typhimurium) was > 100 µg/mL, the MIC [7] was 100 µg/mL (≈ 316 µM) and the MIC (Trichophyton asteroides; Trichophyton, 96 h, read-out: MIC) was 12.5 µg/mL (≈ 39.5 µM). For the same molecule, the MIC (Microsporum gypseum 704) was 1.6 µg/mL (≈ 5.06 µM), the MIC [8] was > 100 µg/mL and the MIC (Bacillus cereus T) was 25 µg/mL (≈ 79 µM). For the same molecule, the MIC (Shigella sonnei E 33) was > 100 µg/mL, the MIC (Proteus mirabilis) was > 100 µg/mL and the MIC [9] was 25 µg/mL (≈ 79 µM). The MIC [10] was 25 µg/mL (≈ 79 µM), the MIC [11] was 12.5 µg/mL (≈ 39.5 µM) and the MIC [12] was > 100 µg/mL. For the same molecule, the MIC [13] was > 100 µg/mL, the MIC [14] was 12.5 µg/mL (≈ 39.5 µM) and the Solubility in ether (Solubility; ether) was “Soluble”. The “Solubility in methanol, ethanol, ethylacetate, chloroform and acetone” value (Solubility; methanol, ethanol, ethylacetate, chloroform, acetone) was “Soluble”, the “Solubility in n-hexane and petroleum ether” value (Solubility; n-hexane, petroleum ether) was “Insoluble” and the Solubility in water (Solubility; water) was “Insoluble”. For the same molecule, the MIC (Trichophyton rubrum; Trichophyton rubrum, 96 h, pH 6.4, potato agar, read-out: MIC) was < 0.2 µg/mL, the MIC (Trichophyton schoenleini; Trichophyton, 96 h, pH 6.4, potato agar, read-out: MIC) was < 0.2 µg/mL and the MIC (Candida albicans; Candida albicans, 96 h, pH 6.4, potato agar, read-out: MIC) was > 100 µg/mL. The MIC [15] was > 100 µg/mL, the MIC [16] was 25 µg/mL (≈ 79 µM) and the MIC [17] was 25 µg/mL (≈ 79 µM). For the same molecule, the MIC [18] was > 100 µg/mL, the MIC (Sarcina lutea PCI 1001) was 25 µg/mL (≈ 79 µM) and the MIC ([19]; Trichophyton interdigitale, 96 h, read-out: MIC) was 12.5 µg/mL (≈ 39.5 µM). For the same molecule, the MIC [20] was 6.3 µg/mL (≈ 19.9 µM) and the MIC (Trichophyton roseum) was 0.8 µg/mL (≈ 2.53 µM).

With ethylkalafunginate [reference compound] the MIC (Saccharomyces sake) was > 100 µg/mL, the MIC (Trichophyton ferrugineum) was > 100 µg/mL and the MIC (Trichophyton violaceum) was > 100 µg/mL. The MIC (Trichophyton asteroides) was > 100 µg/mL, the MIC (Trichophyton rubrum; potato agar) was > 100 µg/mL and the MIC (Trichophyton schoenleini; potato agar) was > 100 µg/mL. For the same molecule, the MIC (Candida albicans; potato agar) was > 100 µg/mL, the “Minimal Inhibitory Con.” value (Aspergillus fumigatus) was > 100 µg/mL and the “Minimal Inhibitory Con.” value (Microsporum gypseum) was > 100 µg/mL. The MIC (Aspergillus niger) was > 100 µg/mL and the MIC [19] was > 100 µg/mL.
